In patent publication US12370182B2, “Bicyclic derivatives as GABAA A5 receptor modulators” (RICHTER GEDEON NYRT., priority 2018, dated 2025):

Each compound was assayed against human recombinant GABAA α5β3γ2 receptor (Homo sapiens (Human), UniProt P18507+P31644) (assay: Binding assay, [3H]Ro151788 displacement on membranes of HEK cells). Settings: 0.5 nM [3H]Ro151788, 60 minutes at 4° C., Cheng-Prusoff; read-out: hGABAA α5 Ki.
Experimental: The GABAA α5β3γ2 protein used for the receptor binding assay was derived from membranes produced from HEK cells (Millipore CYL3073) expressing the human recombinant GABAA α5β3γ2 receptor. Cells were stored and cultured in-house according to the instructions provided by the vendor (Millipor). Cell pellet was homogenized in 10 times modified Krebs Henseleit buffer (membrane preparation buffer): 20 mM Tris, 120 mM NaCl, 100 mM KCl, 25 mM CaCl2) and 25 mM MgCl2 pH=7.4 at 4° C. using Ultra Turrax (Janke&Kunkel) maximal speed for 15 seconds. The homogenate was centrifuged at 40,000 g for 30 minutes at 4° C. Supernatant was discarded and the resulting pellet was washed in membrane preparation buffer. Pellet was resuspended in membrane preparation buffer and aliquots of 1.4 mL ampulles were stored at −70° C. until use.
Receptor binding assays were performed in 96-well format in deep-well plates. For each 96-well plate one ampulle of membrane homogenate was thawed and diluted in binding buffer (50 mM Tris pH=7.4, 100 mM KCl) and 200 μL was dispensed into each well. Radioligand [^3H]Ro151788 (Perkin Elmer: NET757250UC) was prepared in binding buffer and added to each well in 50 μL volume to give final concentration of 0.5 nM. Test compounds in suitable concentration(s) were added in additional 50 μL. The final assay volume was 300 μL. Incubation was carried out for 60 minutes at 4° C. For non-specific binding 10 μM unlabeled diazepam was used. After incubation samples were filtered over UniFilter® GF/B™ using Filtermate Harvester (Perkin Elmer) and washed with 5×1 mL binding buffer. The plate was dried at 40° C. for an hour and 40 μL Microscint (Perkin Elmer) scintillation cocktail was added to each well. The plate was read in Microbeta (Perkin Elmer).
The specific radioligand binding (SB) was defined as the difference between total binding (Tot) and the non-specific binding (NSB). Results are expressed as a percent inhibition of specific binding obtained in the presence of compound of interest.
For IC50 and Ki determination a minimum of six drug concentrations in triplicate were used. […] Ki values (i.e. inhibition constants) were calculated using the Cheng-Prusoff equation Ki=IC50/[1+(L/KD)], where [L] is the radioligand concentration and KD the affinity of the labelled ligand for receptor. KD was determined from the Saturation analyses.

Chain of human recombinant GABAA α5β3γ2 receptor (P31644 32-462): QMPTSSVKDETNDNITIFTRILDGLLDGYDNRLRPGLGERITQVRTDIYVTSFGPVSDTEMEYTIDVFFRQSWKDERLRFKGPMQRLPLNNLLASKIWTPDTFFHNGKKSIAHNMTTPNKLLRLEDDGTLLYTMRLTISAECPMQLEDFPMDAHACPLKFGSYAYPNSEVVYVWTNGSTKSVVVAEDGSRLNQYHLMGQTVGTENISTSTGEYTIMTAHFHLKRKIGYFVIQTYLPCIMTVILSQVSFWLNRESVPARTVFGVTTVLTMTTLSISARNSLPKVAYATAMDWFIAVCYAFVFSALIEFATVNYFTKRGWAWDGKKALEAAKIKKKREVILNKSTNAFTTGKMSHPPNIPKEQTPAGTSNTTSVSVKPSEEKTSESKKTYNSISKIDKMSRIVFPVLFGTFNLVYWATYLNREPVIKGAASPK
Chain of human recombinant GABAA α5β3γ2 receptor (P28472 26-473 partner): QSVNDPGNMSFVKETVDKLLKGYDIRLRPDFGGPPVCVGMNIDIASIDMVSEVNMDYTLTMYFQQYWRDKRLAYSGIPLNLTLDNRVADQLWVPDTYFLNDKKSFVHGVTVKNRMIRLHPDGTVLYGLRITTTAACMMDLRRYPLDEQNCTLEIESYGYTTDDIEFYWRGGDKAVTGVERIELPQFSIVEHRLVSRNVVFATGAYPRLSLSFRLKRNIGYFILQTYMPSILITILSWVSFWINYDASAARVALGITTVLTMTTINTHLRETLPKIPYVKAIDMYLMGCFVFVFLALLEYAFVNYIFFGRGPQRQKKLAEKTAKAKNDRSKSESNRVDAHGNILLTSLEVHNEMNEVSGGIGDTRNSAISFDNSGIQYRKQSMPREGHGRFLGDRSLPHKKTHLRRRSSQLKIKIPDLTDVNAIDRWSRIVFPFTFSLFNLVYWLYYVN
Chain of human recombinant GABAA α5β3γ2 receptor (P18507 40-475): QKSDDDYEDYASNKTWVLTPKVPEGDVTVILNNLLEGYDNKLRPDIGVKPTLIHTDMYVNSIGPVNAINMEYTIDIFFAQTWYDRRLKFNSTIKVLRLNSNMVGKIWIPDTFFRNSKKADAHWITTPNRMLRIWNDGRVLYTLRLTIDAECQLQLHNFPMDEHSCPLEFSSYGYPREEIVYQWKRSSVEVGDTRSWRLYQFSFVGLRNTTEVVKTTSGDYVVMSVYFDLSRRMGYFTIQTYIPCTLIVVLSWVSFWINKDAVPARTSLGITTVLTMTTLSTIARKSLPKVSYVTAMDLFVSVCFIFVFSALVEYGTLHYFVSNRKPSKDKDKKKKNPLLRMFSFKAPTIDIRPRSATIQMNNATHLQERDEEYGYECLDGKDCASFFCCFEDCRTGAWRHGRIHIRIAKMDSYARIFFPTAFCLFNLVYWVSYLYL

First: Cc1nnn(-c2ccc(F)cc2)c1COc1ccc2c(n1)CCN(C(=O)C1CC(=O)N(C)C1)C2 (stereo not shown) [Example 21, 4-(2-{[1-(4-fluorophenyl)-4-methyl-1H-1,2,3-triazol-5-yl]methoxy}-5,6,7,8-tetrahydro-1,6-naphthyridine-6-carbonyl)-1-methylpyrrolidin-2-one]
Second: Cc1nnn(-c2ccc(F)cc2)c1COc1ccc2c(n1)CCN(C(=O)C1CC(=O)N(C(C)C)C1)C2 (stereo not shown) [Example 44, 4-(2-{[1-(4-fluorophenyl)-4-methyl-1H-1,2,3-triazol-5-yl]methoxy}-5,6,7,8-tetrahydro-1,6-naphthyridine-6-carbonyl)-1-(propan-2-yl)pyrrolidin-2-one]
The Ki of the first is 1.5-fold lower: 35 nM for the first, 54 nM for the second.

Compared with `Cn1nnc(-c2ccc(F)cc2)c1COc1ccc2c(n1)CN(C(=O)C1CCCO1)C2` (stereo not shown) [Example 73, 4-(4-fluorophenyl)-1-methyl-5-({[6-(oxolane-2-carbonyl)-5H,6H,7H-pyrrolo[3,4-b]pyridin-2-yl]oxy}methyl)-1H-1,2,3-triazole], `CC(C)C(=O)N1Cc2ccc(OCc3c(-c4ccc(F)cc4)nnn3C)nc2C1` [Example 72, 1-(2-{[4-(4-fluorophenyl)-1-methyl-1H-1,2,3-triazol-5-yl]methoxy}-5H,6H,7H-pyrrolo[3,4-b]pyridin-6-yl)-2-methylpropan-1-one] is 1.6-fold higher in Ki: 18 nM for the first, 29 nM for the second.

Compared with `Cc1cc(C(=O)N2CCc3nc(OCc4c(-c5ccc(F)cc5)noc4C)ccc3C2)no1` [Example 10, 2-{[3-(4-fluorophenyl)-5-methyl-1,2-oxazol-4-yl]methoxy}-6-(5-methyl-1,2-oxazole-3-carbonyl)-5,6,7,8-tetrahydro-1,6-naphthyridine], `Cc1onc(-c2ccc(F)cc2)c1COc1ccc2c(n1)CCN(C(=O)c1ccn(C)c1)C2` [Example 11, 2-{[3-(4-fluorophenyl)-5-methyl-1,2-oxazol-4-yl]methoxy}-6-(1-methyl-1H-pyrrole-3-carbonyl)-5,6,7,8-tetrahydro-1,6-naphthyridine] is 1.9-fold lower in Ki: 21 nM for the first, 11 nM for the second.

Compared with `Cc1nnn(-c2ccc(F)cc2)c1COc1ccc2c(n1)CCN(C(=O)N(C)C)C2` [Example 76, 2-{[1-(4-fluorophenyl)-4-methyl-1H-1,2,3-triazol-5-yl]methoxy}-N,N-dimethyl-5,6,7,8-tetrahydro-1,6-naphthyridine-6-carboxamide], `CCC(=O)N1CCc2nc(OCc3c(C)nnn3-c3ccc(F)cc3)ccc2C1` [Example 24, 1-(2-{[1-(4-fluorophenyl)-4-methyl-1H-1,2,3-triazol-5-yl]methoxy}-5,6,7,8-tetrahydro-1,6-naphthyridin-6-yl)propan-1-one] is 1.5-fold higher in Ki: 30 nM for the first, 46 nM for the second. The first binds more tightly here.

First: Cc1nnn(-c2ccc(F)cc2)c1COc1ccc2c(n1)CN(C(=O)CF)C2 [Example 54, 2-fluoro-1-(2-{[1-(4-fluorophenyl)-4-methyl-1H-1,2,3-triazol-5-yl]methoxy}-5,7-dihydro-6H-pyrrolo[3,4-b]pyridin-6-yl)ethanone]
Second: Cc1nnn(-c2ccc(F)cc2)c1COc1ccc2c(n1)CN(C(=O)C(C)C)C2 [Example 58, 1-(2-{[1-(4-fluorophenyl)-4-methyl-1H-1,2,3-triazol-5-yl]methoxy}-5H,6H,7H-pyrrolo[3,4-b]pyridin-6-yl)-2-methylpropan-1-one]
The Ki of the first is 2.5-fold lower: 5.3 nM for the first, 13 nM for the second.

First: Cc1nnn(-c2ccc(F)cc2)c1COc1ccc2c(n1)CCN(C(=O)c1cccnc1)C2 [Example 39, 2-{[1-(4-fluorophenyl)-4-methyl-1H-1,2,3-triazol-5-yl]methoxy}-6-(pyridine-3-carbonyl)-5,6,7,8-tetrahydro-1,6-naphthyridine]
Second: Cc1nnn(-c2ccc(F)cc2)c1COc1ccc2c(n1)CCN(C(=O)c1cccc(Cl)c1)C2 [Example 27, 6-(3-chlorobenzoyl)-2-{[1-(4-fluorophenyl)-4-methyl-1H-1,2,3-triazol-5-yl]methoxy}-5,6,7,8-tetrahydro-1,6-naphthyridine]
The Ki of the first is 5.7-fold lower: 24 nM for the first, 137 nM for the second.

`Cc1nnn(-c2ccc(F)cc2)c1COc1ccc2c(n1)CN(C(=O)c1ccncc1)C2` [Example 64, 4-(2-{[1-(4-fluorophenyl)-4-methyl-1H-1,2,3-triazol-5-yl]methoxy}-5H,6H,7H-pyrrolo[3,4-b]pyridine-6-carbonyl)pyridine] and `Cc1nnn(-c2ccc(F)cc2)c1COc1ccc2c(n1)CCN(C(=O)c1ccno1)C2` [Example 20, 2-{[1-(4-fluorophenyl)-4-methyl-1H-1,2,3-triazol-5-yl]methoxy}-6-(1,2-oxazole-5-carbonyl)-5,6,7,8-tetrahydro-1,6-naphthyridine] are within 1.5-fold of each other in Ki: 25 nM for the first, 24 nM for the second.

`Cc1nnn(-c2ccc(F)cc2)c1COc1ccc2c(n1)CCN(C(=O)[C@@H]1CCC(=O)N1C)C2` [Example 40, (5S)-5-(2-{[1-(4-fluorophenyl)-4-methyl-1H-1,2,3-triazol-5-yl]methoxy}-5,6,7,8-tetrahydro-1,6-naphthyridine-6-carbonyl)-1-methylpyrrolidin-2-one] and `Cc1nnn(-c2ccc(F)cc2)c1COc1ccc2c(n1)CCN(C(=O)C1CCCOC1)C2` (stereo not shown) [Example 30, 2-{[1-(4-fluorophenyl)-4-methyl-1H-1,2,3-triazol-5-yl]methoxy}-6-(oxane-3-carbonyl)-5,6,7,8-tetrahydro-1,6-naphthyridine] are within 1.5-fold of each other in Ki: 56 nM for the first, 82 nM for the second.

First: Cc1nnn(-c2ccc(F)cc2)c1COc1ccc2c(n1)CN(C(=O)C1CCC1)C2 [Example 57, 5-[({6-cyclobutanecarbonyl-5H,6H,7H-pyrrolo[3,4-b]pyridin-2-yl}oxy)methyl]-1-(4-fluorophenyl)-4-methyl-1H-1,2,3-triazole]
Second: Cc1nnn(-c2ccc(F)cc2)c1COc1ccc2c(n1)CN(C(=O)C(C)(C)C)C2 [Example 59, 1-(2-{[1-(4-fluorophenyl)-4-methyl-1H-1,2,3-triazol-5-yl]methoxy}-5H,6H,7H-pyrrolo[3,4-b]pyridin-6-yl)-2,2-dimethylpropan-1-one]
The Ki of the first is 2.2-fold lower: 14 nM for the first, 31 nM for the second. The first binds more tightly here.

Going from `Cc1nnn(-c2ccc(F)cc2)c1COc1ccc2c(n1)CCN(C(=O)c1ccc(C(F)(F)F)nc1)C2` [Example 37, 2-{[1-(4-fluorophenyl)-4-methyl-1H-1,2,3-triazol-5-yl]methoxy}-6-[6-(trifluoromethyl)pyridine-3-carbonyl]-5,6,7,8-tetrahydro-1,6-naphthyridine] to `Cc1nnn(-c2ccc(F)cc2)c1COc1ccc2c(n1)CCN(C(=O)Nc1ccccc1Cl)C2` [Example 79, N-(2-chlorophenyl)-2-{[1-(4-fluorophenyl)-4-methyl-1H-1,2,3-triazol-5-yl]methoxy}-5,6,7,8-tetrahydro-1,6-naphthyridine-6-carboxamide], the Ki rises from 69 nM to 108 nM (1.6-fold). The first binds more tightly here.

Going from `CC(=O)N1CCc2nc(OCc3c(C)nnn3-c3ccc(Cl)cc3)ccc2C1` [Example 36, 1-(2-{[1-(4-chlorophenyl)-4-methyl-1H-1,2,3-triazol-5-yl]methoxy}-5,6,7,8-tetrahydro-1,6-naphthyridin-6-yl)ethan-1-one] to `CC(=O)N1Cc2ccc(OCc3c(C)nnn3-c3ccc(Cl)cc3)nc2C1` [Example 60, 1-(2-{[1-(4-chlorophenyl)-4-methyl-1H-1,2,3-triazol-5-yl]methoxy}-5,7-dihydro-6H-pyrrolo[3,4-b]pyridin-6-yl)ethanone], the Ki falls from 9.8 nM to 1.2 nM (8.2-fold). The second binds more tightly here.

Going from `Cc1nnn(-c2ccc(F)cc2)c1COc1ccc2c(n1)CCN(C(=O)N1CCCC1)C2` [Example 77, 2-{[1-(4-fluorophenyl)-4-methyl-1H-1,2,3-triazol-5-yl]methoxy}-6-(pyrrolidine-1-carbonyl)-5,6,7,8-tetrahydro-1,6-naphthyridine] to `Cc1onc(-c2ccc(F)cc2)c1COc1ccc2c(n1)CCN(C(=O)C1CC1)C2` [Example 5, 6-cyclopropanecarbonyl-2-{[3-(4-fluorophenyl)-5-methyl-1,2-oxazol-4-yl]methoxy}-5,6,7,8-tetrahydro-1,6-naphthyridine], the Ki falls from 66 nM to 7.8 nM (8.5-fold). The second binds more tightly here.

With `Cc1onc(-c2ccc(F)cc2)c1COc1ccc2c(n1)CN(C(=O)CS(C)(=O)=O)C2` [Example 49, 1-(2-{[3-(4-fluorophenyl)-5-methyl-1,2-oxazol-4-yl]methoxy}-5H,6H,7H-pyrrolo[3,4-b]pyridin-6-yl)-2-methanesulfonylethan-1-one] the Ki was 1.2 nM.
